Measurements taken from patent US20240009150A1, “CAPSAICYNS IN THE TREATMENT OF LEAKY GUT” (AXICHEM AB [SE]/[SE], priority 2020, published 2024).
Entries after “also recorded” stand apart in the source; their conditions may differ.

Key:
[1] = system: Salmonella enterica subsp. enterica serovar Paratyphi C (ATCC® BAA1714™); test: Inhibition of biofilm formation with different capsaicyn compounds, crystal violet staining assay (Example 6); type: cell-based; conditions: for Biofilm (OD 595 nm): 24 hr; for interference with the biofilm readings, in words: 125 μg/ml dose
Experimental: Biofilm formation was quantified with modifications using the method described by Stepanovic et al. (Journal of Microbiological Methods, 2000, 40(2), 175-19) with modifications. Using a 96-well microplate duplicate the test solutions were filled at the above selected doses. Cultures were grown for 18 hr in LB at 30° C. and adjusted to OD 0.1 at 600 nm. 20 μL of the culture were added into each well and the remainder of the volume to 200 μL per well was filled with LB. Unused external wells were filled with 200 μL of sterile water to prevent evaporation.
After 24 hr of incubation, supernatants were discarded, and the wells were washed three times with 200 μL of sterile phosphate buffered saline (PBS). Bacteria adhered to the wells were fixed with 200 μL of methanol for 15 min, the methanol was discarded, and the plates dried at 25° C.
Each well was stained with 200 μL of 0.3% (w/v) crystal violet solution for 5 min at 25° C. Crystal violet excess was pipetted out, and the wells were rinsed five times with sterile PBS. 200 μL of 33% (v/v) glacial acetic acid were added to the wells for 30 min to solubilise the dye adhered to the cell walls. Optical density (OD) was measured at 595 nm using a microplate spectrophotometer as a direct measure of biofilm formation. P. aeruginosa in 3% DMSO will be used as the negative control.
A stock solution of 500 μg of phenylcapsaicin, capsaicin, compound a, compound b, compound c, was prepared by dissolving 500 μg in 100 μl of ethanol and 900 μl of sterile water. The stock solutions were sequentially diluted with quadruple volumes of solvent (10% aqueous ethanol solution) to yield 125/31.25 (32)/7.81 (8)/1.95 (2) μg/ml test solutions.
ATCC® BAA1714™ was used to determine the biofilm inhibition activity. Inducer N-hexanoyl homoserine lactone (C6-HSL) was purchased from Sigma-Aldrich. ATCC® BAA1714™ was cultivated in Luria-Bertani (LB) medium (LB, 5 g yeast extract, 10 g tryptone, 5 g NaCl, 1 L water) at 37° C. overnight under aerobic conditions.
Crystal violet staining assay was performed as in Experiment 3, using ATCC® BAA1714™ in 3% DMSO as the control.

[2] = Rage Paulsen et al., Toxicology Research and Application 2018; cited from earlier work

COc1cc(CNC(=O)CCCCC#Cc2ccccc2)ccc1O [Phenylcapsaicin, N-[(4-hydroxy-3-methoxyphenyl)methyl]-7-phenylhept-6-ynamide]
Biofilm (OD 595 nm) ([1]; 2 μg/mL, 30° C.): 2.5 OD 595 nm
Biofilm (OD 595 nm) ([1]; 8 μg/mL, 30° C.): 2.8 OD 595 nm
Biofilm (OD 595 nm) ([1]; 32 μg/mL, 30° C.): 3.4 OD 595 nm
interference with the biofilm readings, in words [1]: antibacterial interference
biofilm formed (CVSA), in words ([1]; 32, 8 and 2 μg/ml, 30° C.): significantly reduced; also recorded: good inhibitor of biofilm formation
safety with regards to gene mutations and chromosomal damage [2]: safe
systemic toxicity [2]: low systemic toxicity

COc1cc(CNC(=O)CCCC/C=C/C(C)C)ccc1O [Capsaicin, (E)-N-(4-hydroxy-3-methoxybenzyl)-8-methylnon-6-enamide, reference compound]
Biofilm (OD 595 nm) ([1]; 2 μg/mL, 30° C.): 8.2 OD 595 nm
Biofilm (OD 595 nm) ([1]; 8 μg/mL, 30° C.): 8.6 OD 595 nm
Biofilm (OD 595 nm) ([1]; 32 μg/mL, 30° C.): 8.2 OD 595 nm
interference with the biofilm readings, in words [1]: antibacterial interference
biofilm formation inhibition activity, in words ([1]; any dose tested (125, 32, 8, 2 μg/ml)): did not show reduction biofilm formation
